Test results: PMC7464559, “Synthesis, Optimization, Antifungal Activity, Selectivity, and CYP51 Binding of New 2-Aryl-3-azolyl-1-indolyl-propan-2-ols” (Pharmaceuticals, 2020)
In brackets after ≈: the same amount, converted by molar mass.

Experiments:
[1] = test system: ATCC2091 Candida albicans strain; assay: Anti-Candida in vitro assay, ATCC2091; type: cell-based; settings: Candida albicans ATCC2091, mean of triplicate; read-out: MIC (IC80) ATCC2091
Procedure: (§1) Test fungal strains were obtained from the American Type Culture Collection (ATCC) or were clinical isolates from the Laboratory of Parasitology and Medical Mycology, Centre Hospitalier Universitaire (CHU) of Nantes. The strains were maintained on Sabouraud agar slants and were subcultured 24 h before used. The activity of the target compounds 8a–g and 11a–m was determined by the method previously described. Briefly, molecules were diluted in RPMI 1640 medium supplemented with 0.165 M morpholinopropanesulphonic acid (Sigma-Aldrich, Saint-Quentin Fallavier, France), 2% glucose, and antibiotics. Candida suspensions were prepared in RPMI 1640 medium (Sigma-Aldrich, Saint-Quentin Fallavier, France) adjusted to give a final concentration of 10^3 cells/mL, and a 96-well microplate (Nunc, D. Dutscher, Brumath, France) was seeded with 100 µL. Each concentration of molecules (100 µL) to be tested was added (in triplicate) and plates were incubated at 37 °C for 24 h. The cellular viability was evaluated on the Fluorolite 1000 (Dynatech, France) with an excitation at 550 nm and an emission at 590 nm after a 4 h incubation with 10 µL of Alamar Blue®. […] MIC was expressed as the mean of the triplicate values. KTC and FLC were used as standards.

[2] = test system: CA98002 (Candida albicans); assay: Anti-Candida in vitro assay, CA98002; type: cell-based; settings: Candida albicans CA98002, mean of triplicate; read-out: MIC (IC80) CA98002
Procedure: as §1

[3] = test system: CA98005 (Candida albicans); assay: Anti-Candida in vitro assay, CA98005; type: cell-based; settings: Candida albicans CA98005, mean of triplicate; read-out: MIC (IC80) CA98005
Procedure: as §1

[4] = test system: ATCC6258 Candida krusei strain; assay: Anti-Candida in vitro assay, ATCC6258; type: cell-based; settings: Pichia kudriavzevii; Candida krusei ATCC6258, mean of triplicate; read-out: MIC (IC80) ATCC6258
Procedure: as §1

[5] = test system: CK98002 (Candida krusei); assay: Anti-Candida in vitro assay, CK98002; type: cell-based; settings: Pichia kudriavzevii; Candida krusei CK98002, mean of triplicate; read-out: MIC (IC80) CK98002
Procedure: as §1

[6] = test system: CK98003 (Candida krusei); assay: Anti-Candida in vitro assay, CK98003; type: cell-based; settings: Pichia kudriavzevii; Candida krusei CK98003, mean of triplicate; read-out: MIC (IC80) CK98003
Procedure: as §1

[7] = test system: CL98001 (Candida lusitaniae); assay: Anti-Candida in vitro assay, CL98001; type: cell-based; settings: Clavispora lusitaniae; Candida lusitaniae CL98001, mean of triplicate; read-out: MIC (IC80) CL98001
Procedure: as §1

[8] = test system: ATCC90018 Candida parapsilosis strain; assay: Anti-Candida in vitro assay, ATCC90018; type: cell-based; settings: Lodderomyces parapsilosis; Candida parapsilosis ATCC90018, mean of triplicate; read-out: MIC (IC80) ATCC90018
Procedure: as §1

[9] = MRC5 toxicity assay; type: cell-based, human; settings: human, MRC-5 human fetal lung fibroblast cells, MRC-5 cells, 96-h incubation, mean of triplicate; read-out: Cytotoxicity IC50 on MRC-5 cells
Procedure: The cytotoxicity of compounds was studied with human fibroblast (MRC5). Cells were grown in RPMI 1640 medium (Sigma-Aldrich, Saint-Quentin Fallavier, France) supplemented with 10% fetal bovin serum (Sigma–Aldrich). Drugs were tested at three concentrations (100, 10, and 1 µM) in triplicate. After a 96-h incubation time, cytotoxicity was measured on the Fluorolite 1000 (Dynatech, Guyancourt, France) after a 4-h incubation time with Uptiblue® (Interchim, Montluçon, France). Inhibitory concentration 50 is a mean of triplicate values. A toxicity index was determined as follow: IC50 against MRC5/Geometric mean of the MICs against Candida spp..

[10] = test system: C. albicans CA98001; assay: Anti-Candida in vitro assay (Alamar Blue), C. albicans CA98001; type: cell-based; settings: Candida albicans, CA98001, 24 h, MIC = IC80, 24 h at 37 °C, mean of triplicate
Procedure: as §1

| MIC [1] [µg/mL] | MIC [2] [µg/mL] | MIC [3] [µg/mL] | MIC [4] [µg/mL] | MIC [5] [µg/mL] | MIC [6] [µg/mL] | MIC [7] [µg/mL] | MIC [8] [µg/mL] | melting point [°C] | MIC [10] [µg/mL] | Compound | IC50 at 96 h [9] [µM] |
| --- | --- | --- | --- | --- | --- | --- | --- | --- | --- | --- | --- |
| 0.136 (≈ 0.369 µM) | 0.033 (≈ 0.0896 µM) | 0.265 (≈ 0.719 µM) | 1.4 (≈ 3.8 µM) | 0.81 (≈ 2.2 µM) | 0.7 (≈ 1.9 µM) | 0.023 (≈ 0.0624 µM) | 0.309 (≈ 0.839 µM) | 112 to 113 |  | Cc1cn(CC(O)(Cn2cncn2)c2ccc(F)cc2F)c2ccccc12 (stereo not drawn) [Compound 11h, 2-(2,4-Difluorophenyl)-3-(3-methyl-1H-indol-1-yl)-1-(1H-1,2,4-triazol-1-yl)propan-2-ol] | 105 |
| 0.199 (≈ 0.54 µM) | 0.302 (≈ 0.82 µM) | 0.516 (≈ 1.4 µM) | 17.6 (≈ 47.7 µM) | 7.59 (≈ 20.6 µM) | 5.45 (≈ 14.8 µM) | 0.232 (≈ 0.63 µM) | 2.5 (≈ 6.8 µM) | 125 to 126 | 0.022 (≈ 0.0597 µM) | Cc1cc2ccccc2n1CC(O)(Cn1cncn1)c1ccc(F)cc1F (stereo not drawn) [Compound 11f, 2-(2,4-Difluorophenyl)-3-(2-methyl-1H-indol-1-yl)-1-(1H-1,2,4-triazol-1-yl)propan-2-ol] | ~190 |
| 0.258 (≈ 0.731 µM) | 0.261 (≈ 0.74 µM) | 0.222 (≈ 0.629 µM) | 2.43 (≈ 6.9 µM) | 12.7 (≈ 35.9 µM) | 2.43 (≈ 6.9 µM) | 0.208 (≈ 0.59 µM) | 2.05 (≈ 5.8 µM) | 188 to 189 | 0.024 (≈ 0.068 µM) | OC(Cn1cncn1)(Cn1ccc2ccccc21)c1ccc(Cl)cc1 (stereo not drawn) [Compound 11b, 2-(4-Chlorophenyl)-3-(1H-indol-1-yl)-1-(1H-1,2,4-triazol-1-yl)propan-2-ol] | > 100 |
| 0.477 (≈ 1.2 µM) | 0.338 (≈ 0.851 µM) | 0.286 (≈ 0.72 µM) | 1.51 (≈ 3.8 µM) | 2.46 (≈ 6.2 µM) | 2.5 (≈ 6.3 µM) | 0.215 (≈ 0.541 µM) | 2.03 (≈ 5.1 µM) | 186 to 187 | 0.027 (≈ 0.068 µM) | OC(Cn1cncn1)(Cn1ccc2ccccc21)c1ccc(Br)cc1 (stereo not drawn) [Compound 11c, 2-(4-Bromophenyl)-3-(1H-indol-1-yl)-1-(1H-1,2,4-triazol-1-yl)propan-2-ol] | 38 |

Further lines, the compound ahead of its results:

| Compound | MIC [1] [µg/mL] | MIC [2] [µg/mL] | MIC [3] [µg/mL] | MIC [4] [µg/mL] | MIC [5] [µg/mL] | MIC [6] [µg/mL] | MIC [7] [µg/mL] | MIC [8] [µg/mL] | melting point [°C] | MIC [10] [µg/mL] | IC50 at 96 h [9] [µM] |
| --- | --- | --- | --- | --- | --- | --- | --- | --- | --- | --- | --- |
| OC(Cn1ccnc1)(Cn1ccc2ccccc21)c1ccc(Cl)cc1Cl (stereo not drawn) [Compound 8e, 2-(2,4-Dichlorophenyl)-1-(1H-imidazol-1-yl)-3-(1H-indol-1-yl)propan-2-ol] | 0.19 (≈ 0.492 µM) | 0.251 (≈ 0.65 µM) | 0.274 (≈ 0.709 µM) | 1.2 (≈ 3.11 µM) | 1.8 (≈ 4.66 µM) | 0.28 (≈ 0.725 µM) | 0.116 (≈ 0.3 µM) | 0.24 (≈ 0.621 µM) | 212 to 213 | 0.062 (≈ 0.161 µM) | 31 |
| OC(Cn1ccnc1)(Cn1ccc2ccccc21)c1ccc(F)cc1 (stereo not drawn) [Compound 8a, 2-(4-Fluorophenyl)-1-(1H-imidazol-1-yl)-3-(1H-indol-1-yl)propan-2-ol] | 0.131 (≈ 0.391 µM) | 0.205 (≈ 0.611 µM) | 0.148 (≈ 0.441 µM) | > 33.5 | 12.8 (≈ 38 µM) | 28.6 (≈ 85.3 µM) | 0.231 (≈ 0.689 µM) | 2.11 (≈ 6.29 µM) | 166 to 167 | 0.03 (≈ 0.0895 µM) | 50 |
| OC(Cn1cncn1)(Cn1ccc2ccccc21)c1ccc(C(F)(F)F)cc1 (stereo not drawn) [Compound 8f, 1-(1H-Indol-1-yl)-3-(1,2,4-1H-triazol-1-yl)-2-(4-trifluoromethyl-phenyl)propan-2-ol] | 0.247 (≈ 0.639 µM) | 0.233 (≈ 0.603 µM) | 0.749 (≈ 1.94 µM) | 19.1 (≈ 49.4 µM) | 10.6 (≈ 27.3 µM) | 3.07 (≈ 7.94 µM) | 0.199 (≈ 0.515 µM) | 2 (≈ 5.18 µM) | 165 to 168 | 0.009 (≈ 0.0233 µM) | 76 |
| OC(Cn1ccnc1)(Cn1ccc2ccccc21)c1ccc(Br)cc1 (stereo not drawn) [Compound 8c, 2-(4-Bromophenyl)-1-(1H-imidazol-1-yl)-3-(1H-indol-1-yl)propan-2-ol] | 0.357 (≈ 0.901 µM) | 0.25 (≈ 0.631 µM) | 0.21 (≈ 0.53 µM) | > 39.6 | 5.08 (≈ 12.8 µM) | 36.6 (≈ 92.3 µM) | 0.25 (≈ 0.631 µM) | 1.84 (≈ 4.64 µM) | 134 to 135 | 0.02 (≈ 0.0505 µM) | 31 |
